# Laboratory results: BindingDB's records for doi:10.1016/j.bmcl.2012.06.023 (University of Siena, 2012)
# Target: Subtilisin-like protease 1 (Plasmodium falciparum, UniProt O61142)
# Assay: Inhibition of Plasmodium falciparum SUB1 by fluorimetric assay
# Subtilisin-like protease 1, sequence (O61142 220-690 limits assumed): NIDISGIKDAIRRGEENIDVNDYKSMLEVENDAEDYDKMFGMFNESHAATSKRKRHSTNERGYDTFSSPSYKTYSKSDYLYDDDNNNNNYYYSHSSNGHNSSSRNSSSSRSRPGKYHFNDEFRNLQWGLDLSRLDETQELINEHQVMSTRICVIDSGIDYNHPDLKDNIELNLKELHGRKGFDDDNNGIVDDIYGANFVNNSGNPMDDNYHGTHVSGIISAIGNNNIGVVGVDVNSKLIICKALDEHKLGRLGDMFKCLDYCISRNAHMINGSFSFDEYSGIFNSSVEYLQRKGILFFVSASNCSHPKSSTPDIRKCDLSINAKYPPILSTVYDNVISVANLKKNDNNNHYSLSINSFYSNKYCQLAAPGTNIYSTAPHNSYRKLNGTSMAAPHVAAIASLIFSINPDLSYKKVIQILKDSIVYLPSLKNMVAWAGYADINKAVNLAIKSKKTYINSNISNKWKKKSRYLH
row,SMILES,IC50
1,O=[N+]([O-])c1ccc(CN=Nc2nc3ccccc3[nH]2)cc1,> 50 µM
2,O=[N+]([O-])c1ccc(CN=Nc2c3c(nc4ccccc24)CCCC3)cc1,> 50 µM
3,Cc1cc(N=NCc2ccc(C#N)cc2)c2cc3c(cc2n1)OCO3,40 µM

# More lines, now with the values ahead:
row,IC50,SMILES
1,40 µM,Cc1cc(N=NCc2ccccc2[N+](=O)[O-])c2cc3c(cc2n1)OCO3
2,20 µM,COc1ccc2nc(C)cc(N=NCc3ccc([N+](=O)[O-])cc3)c2c1 [TCMDC-123970]
3,20 µM,Cc1cc(N=NCc2ccc([N+](=O)[O-])cc2)c2cc3c(cc2n1)OCO3
